Assay [1] in a line: Shape and frizz control (volume) of straightened hair switches after high humidity, image analysis. The settings on record: After 1 hour at high humidity (30 C./80% RH), switches soaked 30 minutes in 1% aqueous solution, dried, compared to water control. As to the method:
(§1) Dark brown European wavy hair switches of length 25 cm and weight 2 gms, were treated as follows:
Control: After initial washing, soaked for 30 minutes in water
Comparative Example A: After initial washing, soaked for 30 minutes in aqueous solution of 1% glycine
Example 1: soaked for 30 minutes in aqueous solution of 1% N-formyl glycine
(§2) At the end of the soaking period, the switches were left to dry at 20° C. and 50% RH. When dried, the switches were straightened with 5 passes of FHI irons (FHI Brands, 29003 Avenue Sherman Valencia, Calif. 91355 USA). The switches were then placed in a humidity chamber ˜30 C/80% RH for 1 hour and images were captured and analyzed.

A short description of assay [2]: Long lasting and durable volume reduction of treated hair switches after subsequent washing. The settings on record: switches from Example 1 subsequently washed, images captured; compared to control. As to the method:
as §1, §2
The switches from the above example were subsequently washed and the images were captured. […] The corresponding benefits for glycine was only −10%.

This note sets out measurements from patent publication US11229592B2, “Method for hair volume reduction” (Conopco, Inc., priority 2017, dated 2022).

Regarding `NCC(=O)O` [Comparative Example A, glycine], the “% shape and frizz control benefit against control” value in assay [1] is −6%. In addition, the “benefit over control (volume reduction)” value in assay [2] is on record as −10%.

For the compound `O=CNCC(=O)O` [Example 1, N-formyl glycine], in assay [1], the “% shape and frizz control benefit against control” value came to 30%. In addition, in assay [2], the “benefit over control (volume reduction)” value is recorded as 32%.
